pEC50: −log10 of the molar value. Values after ≈ are worked out from the molar mass of the structure shown.
Tests used:
[1] = Inhibition of NS5A in HCV genotype-1b infected in human HuH7 cells by luciferase reporter gene assay; format: cell-based, Hepatitis C virus subtype 1b; conditions: Hepatitis C virus, Huh-7
[2] = Inhibition of NS5A in HCV genotype-1a infected in human HuH7 cells by luciferase reporter gene assay; format: cell-based, Hepatitis C virus subtype 1a; conditions: Hepatitis C virus, Huh-7
[3] = AUClast in Sprague-Dawley rat at 10 mg/kg, po; format: ADME, organism-based; parameters: time 0 - last, dose 10 mg/kg, route oral; conditions: plasma
[4] = Tmax in Sprague-Dawley rat at 10 mg/kg, po; format: ADME, organism-based; parameters: dose 10 mg/kg, route oral; conditions: in vivo
[5] = Cmax in Sprague-Dawley rat at 10 mg/kg, po; format: ADME, organism-based; parameters: dose 10 mg/kg, route oral; conditions: in vivo
[6] = Solubility of the compound at pH 7.4 by UV detection method; format: physicochemical; conditions: buffer

Row | Structure (SMILES) | pEC50 [1] | pEC50 [2] | AUC(0-t) [3] | Tmax [4] | Cmax [5] | solubility [6]
1 | COC(=O)N[C@H](C(=O)N[C@@H](C)c1ncc(C2CCN(c3c(F)cc(-c4cnc([C@@H]5CCCN5C(=O)[C@@H](NC(=O)OC)C(C)C)[nH]4)cc3F)CC2)[nH]1)C(C)C | 9.85 | 7.17 | – | – | – | –
2 | COC(=O)N[C@H](C(=O)N[C@H](c1ncc(C2CCN(c3c(F)cc(-c4cnc([C@@H]5CCCN5C(=O)[C@@H](NC(=O)OC)C(C)C)[nH]4)cc3F)CC2)[nH]1)C(C)C)C(C)C | 10.15 | 7.60 | – | – | – | –
3 | COC(=O)N[C@H](C(=O)N[C@@H](C)c1ncc(-c2cc(F)c(N3CCC(c4cnc([C@@H]5CCCN5C(=O)[C@@H](NC(=O)OC)C(C)C)[nH]4)CC3)c(F)c2)[nH]1)C(C)C | 9.57 | 7.41 | – | – | – | –
4 | COC(=O)N[C@@H](C(=O)N1CCOC[C@H]1c1ncc(-c2cc(F)c(N3CCC(c4cnc([C@@H]5CCCN5C(=O)[C@H](NC(=O)OC)c5ccccc5)[nH]4)CC3)c(F)c2)[nH]1)c1ccccc1 | 10.40 | 7.14 | – | – | – | –
5 | COC(=O)N[C@@H](C)C(=O)N1CCC[C@H]1c1ncc(-c2ccc([C@H]3CC[C@H](c4cnc([C@@H]5CCCN5C(=O)[C@H](C)NC(=O)OC)[nH]4)CC3)cc2)[nH]1 | 9.48 | 8.14 | – | – | – | –
6 | COC(=O)N[C@H](C(=O)N1CCC[C@H]1c1ncc(-c2ccc([C@H]3CC[C@H](c4cnc([C@@H]5CCCN5C(=O)[C@@H](NC(=O)OC)C5CC5)[nH]4)CC3)cc2)[nH]1)C1CC1 | 9.07 | 8.35 | – | – | – | –
7 | CC[C@H](C)[C@H](NC(=O)OC)C(=O)N1CCC[C@H]1c1ncc(-c2ccc([C@H]3CC[C@H](c4cnc([C@@H]5CCCN5C(=O)[C@@H](NC(=O)OC)[C@@H](C)CC)[nH]4)CC3)cc2)[nH]1 | 10.30 | 8.39 | – | – | – | –
8 | COC(=O)N[C@H](C(=O)N1CCC[C@H]1c1ncc(-c2ccc([C@H]3CC[C@H](c4cnc([C@@H]5CCCN5C(=O)[C@@H](NC(=O)OC)[C@@H](C)OC)[nH]4)CC3)cc2)[nH]1)[C@@H](C)OC | 9.72 | 8.85 | – | – | – | –
9 | COC(=O)N[C@H](C(=O)N1CCC[C@H]1c1ncc(-c2ccc([C@H]3CC[C@H](c4cnc([C@@H]5CCCN5C(=O)[C@@H](c5ccccc5)N(C)C)[nH]4)CC3)cc2)[nH]1)C(C)C | 9.85 | 8.77 | – | – | – | –
10 | COC(=O)N[C@@H](C(=O)N1CCC[C@H]1c1ncc(-c2ccc([C@H]3CC[C@H](c4cnc([C@@H]5CCCN5C(=O)[C@@H](c5ccccc5)N(C)C)[nH]4)CC3)cc2)[nH]1)c1ccccc1 | 9.96 | 8.85 | 255 ng·h/mL | 1.67 h | 54.1 ng/mL | –
11 | COC(=O)N[C@H](C(=O)N1CCC[C@H]1c1ncc(-c2ccc([C@H]3CC[C@H](c4cnc([C@@H]5CCCN5C(=O)[C@H](C(C)C)N(C)C)[nH]4)CC3)cc2)[nH]1)C(C)C | 9.15 | < 7.00 | – | – | – | –
12 | COC(=O)N[C@H](C(=O)N1CCC[C@H]1c1ncc(-c2ccc([C@H]3CC[C@H](c4cnc([C@@H]5CCCN5C(=O)[C@H](NC(=O)OC)c5ccccc5)[nH]4)CC3)cc2)[nH]1)C(C)C | 10.30 | 8.59 | – | – | – | –
13 | COC(=O)N[C@H](C(=O)N1CCC[C@H]1c1ncc([C@H]2CC[C@H](c3ccc(-c4cnc([C@@H]5CCCN5C(=O)[C@H](NC(=O)OC)c5ccccc5)[nH]4)cc3)CC2)[nH]1)C(C)C | 10.06 | 8.36 | – | – | – | –
14 | COC(=O)N[C@H](C(=O)N1CCC[C@H]1c1ncc(-c2ccc(-c3ccc(-c4cnc([C@@H]5CCCN5C(=O)[C@@H](NC(=O)OC)C(C)C)[nH]4)cc3)cc2)[nH]1)C(C)C [DACLATASVIR] | 10.64 | 9.85 | – | – | – | 6.8 µg/mL (≈ 9.2 µM)

Reference: ChEMBL document CHEMBL3351465, “Discovery of functionalized bisimidazoles bearing cyclic aliphatic-phenyl motifs as HCV NS5A inhibitors” (Bioorg Med Chem Lett, 2014)
